Results on one compound are retold here after publication PMC11092803, “Heme allocation in eukaryotic cells relies on mitochondrial heme export through FLVCR1b to cytosolic GAPDH” (Research Square, 2024).

The experiment addresses T1, IDO1 (Homo sapiens, UniProt P14902).
T1 construct: full-length with FLAG tag, expressed in HEK293T cells; immunoprecipitated for 14C-heme count
The experiment is described as follows: L-kynurenine in culture medium, p-dimethylaminobenzaldehyde colorimetry at […] nm. The experiment is classed as cell-based. Conditions: intact HEK293T cells expressing IDO1; L-Trp 2 mM, with or without δ-ALA and ferric citrate, 5 h.

T1 sequence (P14902 whole entry): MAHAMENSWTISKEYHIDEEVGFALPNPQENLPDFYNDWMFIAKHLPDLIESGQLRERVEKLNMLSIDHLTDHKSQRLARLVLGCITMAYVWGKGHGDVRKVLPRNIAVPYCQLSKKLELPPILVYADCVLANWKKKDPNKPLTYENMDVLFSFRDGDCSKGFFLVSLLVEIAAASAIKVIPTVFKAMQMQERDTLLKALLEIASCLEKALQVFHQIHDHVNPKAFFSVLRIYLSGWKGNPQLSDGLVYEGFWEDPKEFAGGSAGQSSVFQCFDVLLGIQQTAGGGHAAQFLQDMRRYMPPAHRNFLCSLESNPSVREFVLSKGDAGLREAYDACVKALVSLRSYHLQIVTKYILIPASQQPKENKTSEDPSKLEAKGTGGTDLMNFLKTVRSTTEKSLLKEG

Turning to `N[C@@H](Cc1c[nH]c2ccccc12)C(=O)O` [L-Trp], the “L-kynurenine in culture medium, p-dimethylaminobenzaldehyde colorimetry at 492 n” value is on record as “IDO1 activity was determined by colorimetric measure of the accumulated L-Kynurenine product”.
